Converted amounts (≈) assume the structure as drawn. A value given as a limit tells only on which side of the number the result lay.

Common to all, as to assay: microbe, parasite or virus in culture
Holding throughout (assay type): cell-based

Assay [1] relates to S. cerevisiae YEM-1 (CDR1 introduced). As to conditions: YEM-1, CDR1; milbemycin β1 […].
Assay [2] concerns S. cerevisiae YEM-37 (CDR2 introduced).
In assay [3] the test system is S. cerevisiae YEM-39 (CgCDR introduced).
Assay [4] has as its system S. cerevisiae YEM-2 (BEN introduced). As to conditions: YEM-2, BEN; milbemycin β1 […].
Assay [5] has as its system S. cerevisiae YEM-40 (CgCDR, MF, introduced).
In assay [6] the test system is S. cerevisiae YEM-38 (FLU1 introduced).
Assay [7] has as its system C. albicans YEM-11 (BEN overexpressor).
Assay [8] relates to C. albicans YEM-13 (BEN overexpressor).
Assay [9] concerns C. albicans YEM-15 (CDR1 and CDR2 overexpressor).
In assay [10] the test system is C. albicans YEM-5 (CDR1 and CDR2 overexpressor).
The test system of assay [11] is S. cerevisiae YEM-3 (no efflux pump introduced). As to conditions: Saccharomyces cerevisiae, read-out: MIC Flu alone.
Assay [12] relates to C. albicans YEM-15 (CDR1 & CDR2 overexpressor).
In assay [13] the test system is C. glabrata YEM-19 (CgCDR overexpressor).
The mark [14] stands for this setting: Saccharomyces cerevisiae, read-out: MIC Flu alone.
The mark [15] stands for this setting: Candida albicans, read-out: MIC Flu alone.

As to `CO[C@H]1C[C@@]2(O)/C(CO)=C/C=C/[C@H](C)C/C(C)=C/C[C@@H]3C[C@@H](C[C@]4(CC[C@H](C)[C@@H](C)O4)O3)OC(=O)[C@@H]2C=C1C` [Compound 6, Milbemycin β1], the MIC of fluconazole, Flu + Mb ([…]) in assay [1] amounted to 0.25 µg/mL; in assay [2] (YEM-37, CDR2, milbemycin β1 […]), 0.25 µg/mL; in assay [3] (YEM-39, CgCDR, milbemycin β1 […]) it was 1 µg/mL; in assay [4], 128 µg/mL; in [5] (YEM-40, CgCDR (MF), milbemycin β1 […]), 16 µg/mL; in assay [6] (YEM-38, FLU1, milbemycin β1 […]) it was 4 µg/mL. The “MIC of fluconazole, Flu + Mb (2.5 μg/ml)” value in [7] (YEM-11, milbemycin β1 2.5 μg/ml) was 32 µg/mL; in assay [8] (YEM-13, milbemycin β1 2.5 μg/ml), 32 µg/mL; in [9] (YEM-15, milbemycin β1 2.5 μg/ml), 1 µg/mL; in assay [10] (YEM-5, milbemycin β1 2.5 μg/ml) it was 8 µg/mL.

Turning to `OC(Cn1cncn1)(Cn1cncn1)c1ccc(F)cc1F` [Fluconazole, fluconazole, reference compound], the MIC in assay [11] amounted to 0.25 µg/mL (≈ 0.816 µM); in assay [2] (setting [14]) it was 2 µg/mL (≈ 6.53 µM); in assay [3] (setting [14]) it was 32 µg/mL (≈ 104 µM); in assay [5] (setting [14]), 16 µg/mL (≈ 52.2 µM); in assay [6] (setting [14]), 4 µg/mL (≈ 13.1 µM); in [7] (setting [15]), 32 µg/mL (≈ 104 µM). Besides, the MIC in assay [8] (setting [15]) was 32 µg/mL (≈ 104 µM); in [9] (setting [15]), 128 µg/mL (≈ 418 µM); in assay [10] (setting [15]), greater than 128 µg/mL; in assay [12] (setting [15]), 128 µg/mL (≈ 418 µM); in [13] (Nakaseomyces glabratus, read-out: MIC Flu alone) it was greater than 128 µg/mL.

For the molecule Milbemycin oxime [Compound 2], the “MIC of fluconazole, Flu + McOxm (2.5 μg/ml)” value was 0.25 µg/mL in assay [12] and 128 µg/mL in [13].
